Measurements published in ChEMBL document CHEMBL1139813, “Synthesis and biological evaluation of amino-pyridines as androgen receptor antagonists for stimulating hair growth and reducing sebum production” (Bioorg Med Chem Lett, 2007).
Active and inactive are the calls of the source. The calls are words filed in the database; no cut-off is given here.

Key:
Androgen receptor [1] = target: T1, Androgen receptor (Homo sapiens, UniProt P10275); test: biochemical
T1 sequence (P10275 whole entry): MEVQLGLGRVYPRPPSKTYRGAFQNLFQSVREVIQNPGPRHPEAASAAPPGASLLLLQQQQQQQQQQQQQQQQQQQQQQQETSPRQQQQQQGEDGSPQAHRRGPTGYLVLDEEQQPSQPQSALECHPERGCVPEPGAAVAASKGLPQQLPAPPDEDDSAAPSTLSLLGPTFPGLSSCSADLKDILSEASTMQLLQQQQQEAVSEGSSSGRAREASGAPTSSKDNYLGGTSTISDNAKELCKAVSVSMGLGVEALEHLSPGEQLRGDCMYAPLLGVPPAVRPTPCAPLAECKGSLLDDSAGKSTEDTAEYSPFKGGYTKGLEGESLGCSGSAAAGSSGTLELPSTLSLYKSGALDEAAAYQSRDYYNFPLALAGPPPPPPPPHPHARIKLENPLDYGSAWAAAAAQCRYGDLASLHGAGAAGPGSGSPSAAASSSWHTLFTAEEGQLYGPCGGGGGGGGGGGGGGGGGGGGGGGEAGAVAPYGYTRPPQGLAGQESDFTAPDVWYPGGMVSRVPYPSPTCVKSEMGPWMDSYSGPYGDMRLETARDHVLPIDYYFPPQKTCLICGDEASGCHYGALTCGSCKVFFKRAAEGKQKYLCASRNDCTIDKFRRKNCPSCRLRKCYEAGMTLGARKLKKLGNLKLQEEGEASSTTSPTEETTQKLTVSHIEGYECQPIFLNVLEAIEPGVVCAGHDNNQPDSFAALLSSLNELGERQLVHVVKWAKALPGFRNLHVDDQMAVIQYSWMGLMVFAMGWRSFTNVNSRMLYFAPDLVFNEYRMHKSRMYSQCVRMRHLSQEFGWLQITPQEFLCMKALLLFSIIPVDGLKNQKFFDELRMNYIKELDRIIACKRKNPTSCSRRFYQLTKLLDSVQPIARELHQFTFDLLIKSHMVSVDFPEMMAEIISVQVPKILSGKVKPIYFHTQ
Description: Displacement of [3H]dihydrotestosterone from human androgen receptor expressed in Sf9 cells

Androgen receptor [2] = target: T1, Androgen receptor
Description: Antagonist activity at human androgen receptor expressed in MDA-MB-453 cells

Syrian golden hamster = test: Reduction in sebum production in syrian hamster ear model at 3% concentration administered for 5 days, bid per week for 2 weeks; format: functional, Mesocricetus auratus; parameters: scale not given: the % may be the effect or the level left
Mus musculus = test: Stimulation of hair growth in C3H/HeN mouse at 3% concentration administered for 5 days, bid per week for 4 weeks; format: functional, organism-based
[3] = Clearance in Beagle dog plasma at 0.5 mg/kg, iv; format: ADME, organism-based, Canis lupus familiaris; parameters: dose 0.5 mg/kg, route intravenous

Structure (SMILES)	IC50 (Androgen receptor [1]) [nM]	IC50 (Androgen receptor [2]) [nM]	Activity (Syrian golden hamster) [%]	Activity (Mus musculus)	clearance [3] [mL/min/kg]
CCC(C)N(C)c1cc(C(F)(F)F)c(C#N)cn1 (stereo not drawn)	7	> 1000			
C[C@@H](Nc1cc(C(F)(F)F)c(C#N)cn1)c1ccccc1	4930				
C[C@@H](c1ccccc1)N(C)c1cc(C(F)(F)F)c(C#N)cn1	1700				
C[C@H](c1ccccc1)N(C)c1cc(C(F)(F)F)c(C#N)cn1		45	83	Active	40
CC(c1ccccc1)N(C)c1cc(C(F)(F)F)c(C#N)cn1 (stereo not drawn)		229			
CCCN(CCC)c1cc(C(F)(F)F)c(C#N)cn1	78	> 1000			
CC1(C)C(=O)N(c2ccc(C#N)c(C(F)(F)F)c2)C(=O)N1CCCCO [RU-58841]			92		
N#Cc1cnc(N2CCCCC2)cc1C(F)(F)F	209	422			
N#Cc1cnc(N2CCC3CCCCC3C2)cc1C(F)(F)F (stereo not drawn)	169	260			
CC1CCN(c2cc(C(F)(F)F)c(C#N)cn2)CC1	73	136			
